Measured values: the supplement of paper PMC8497498

Columns and labels:
[1] = system: Plasmodium cynomolgi Berok K4 asexual blood stage; assay: EC50 asexual blood stage growth
Protocol: (§1)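 The Reference Compound Library was tested by 10-point 3-fold dose response against P. cynomolgi Berok K4 asexual blood stages (SYBR proliferation assay, mefloquine background control). Culture medium contained 0.5% AlbuMAX or 20% M. fascicularis serum. P. falciparum 3D7 was tested in a 72-h SYBR Green assay with 0.5% AlbuMAX. Values are geometric mean EC50 over independent experiments; 10 uM is the top dose.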

[2] = system: Plasmodium falciparum 3D7 asexual blood stage; assay: EC50 asexual blood stage growth; conditions: serum: 0.5% AlbuMAX
Protocol: as §1

[3] = system: Plasmodium vivax liver stage (primary human hepatocyte culture); conditions: P. vivax isolate: Pv914, hepatocyte lot: BGW
Method in brief: (§2)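 P. vivax sporozoites from mosquitoes fed on patient isolates were used to infect primary human hepatocytes, which received compounds at 8 points (10 uM[…]) or 12 points in duplicate (50 uM–280 pM). High-content imaging of immunostained wells recorded schizont growth area, hypnozoite count and hepatic nuclei relative to DMSO and positive-control wells. Potency, maximum inhibition and nuclei-loss cytotoxicity were fitted in CDD Vault from the best-quality run, omitting toxic bell-shaped points.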

[4] = system: primary human hepatocytes; assay: CC20 hepatic nuclei (20% reduction); higher = less toxic; conditions: P. vivax isolate: Pv914, hepatocyte lot: BGW
Method in brief: as §2

[5] = system: Plasmodium vivax liver stage (primary human hepatocyte culture); assay: maximum inhibition of schizont net growth area; higher = more active; conditions: P. vivax isolate: Pv914, hepatocyte lot: BGW
Method in brief: as §2

[6] = serum: 20% M. fascicularis serum
[7] = assay mode: Prophylactic, 6-day
[8] = assay mode: Radical Cure, 8-day (treatment from day 5 post-infection)

SMILES | EC50 asexual blood stage growth ([1]; serum: 0.5% AlbuMAX) [nM] | EC50 asexual blood stage growth [1, 6] [nM] | EC50 asexual blood stage growth [2] [nM] | other results
CS(=O)(=O)c1ccc(-c2cnc(N)c(-c3ccc(C(F)(F)F)nc3)n2)cc1 | 4880 | 629 | 178 | EC50 hypnozoite quantity [3, 7]: 7.29 nM; EC50 schizont net growth area [3, 7]: 4.76 nM; EC50 hypnozoite quantity [3, 8]: > 10000 nM; EC50 schizont net growth area [3, 8]: 23.9 nM; CC20 hepatic nuclei [4, 7]: > 10000 nM; CC20 hepatic nuclei [4, 8]: > 10000 nM; maximum inhibition [5, 7]: 101%; maximum inhibition [5, 8]: 96.4%
O=C(NCCN1CCCC1)c1cc(-c2ccc(CN3CCOCC3)cc2)nc2ccc(F)cc12 | 1.5 | 0.7 | 1 | EC50 hypnozoite quantity [3, 7]: 10.4 nM; EC50 schizont net growth area [3, 7]: 2.57 nM; EC50 hypnozoite quantity [3, 8]: > 10000 nM; EC50 schizont net growth area [3, 8]: 2.35 nM; CC20 hepatic nuclei [4, 7]: > 10000 nM; CC20 hepatic nuclei [4, 8]: > 10000 nM; maximum inhibition [5, 7]: 101%; maximum inhibition [5, 8]: 92.3%
OC(c1cc(C(F)(F)F)nc2c(C(F)(F)F)cccc12)C1CCCCN1 (racemic) [(±)-Mefloquine] | 219 | 66.4 | 90.1 | EC50 hypnozoite quantity [3, 7]: > 10000 nM; EC50 schizont net growth area [3, 7]: > 1110 nM; CC20 hepatic nuclei [4, 7]: > 3330 nM; maximum inhibition [5, 7]: 86%
CC1CCC2C(C)C(O)OC3OC4(C)CCC1C32O4 (stereo unspecified) [Deoxydihydroartemisinin] | > 10000 | > 10000 | > 10000 | –
C[C@H]1c2cccc(O)c2C(=O)C2=C(O)[C@]3(O)C(=O)C(C(N)=O)=C(O)[C@@H](N(C)C)C3[C@@H](O)C21 (stereo partly specified) [Doxycycline] | 9360 | 8350 | 9930 | –
CN(C)CC1=C(CNc2ccnc3cc(Cl)ccc23)C=[C-]C1.[C-]1=CC=CC1.[Fe+2] [Ferroquine] | 43.3 | 36.2 | 11.5 | –
O=CN(O)CCCP(=O)(O)O [Fosmidomycin] | > 10000 | 6690 | > 10000 | –
N=C(N)c1ccc(-c2ccc(-c3ccc(C(=N)N)cc3)o2)cc1 [Furamidine] | 4670 | 864 | 540 | –
CCCCN(CCCC)CCC(O)c1cc2c(Cl)cc(Cl)cc2c2cc(C(F)(F)F)ccc12 (stereo unspecified) [Halofantrine] | 0.5 | 0.5 | 3.7 | –
CCN(CCO)CCCC(C)Nc1ccnc2cc(Cl)ccc12 (stereo unspecified) [Hydroxychloroquine] | 3370 | 209 | 427 | –
CC1(C)c2nc(-c3ccc(F)cc3)c(Nc3ccc(F)cc3)n2CCN1C(=O)CN [KAF-156] | 3.6 | 36.6 | 24.4 | –
CCCCN(CCCC)CC(O)c1cc(Cl)cc2c1-c1ccc(Cl)cc1C2=Cc1ccc(Cl)cc1 (stereo unspecified) [Lumefantrine] | 23.3 | 105 | 30.5 | –
CC(C)(C)c1cc(O)c(CN)c(C(C)(C)C)c1.Cl [MK-4815] | 49.4 | 93.8 | 574 | –
CS(=O)(=O)c1ccc(-c2cnc(N)c(-c3ccc(C(F)(F)F)nc3)c2)cc1 [MMV048] | 59.8 | 49 | 127 | –
CN(Cc1cnc2nc(N)nc(N)c2n1)c1ccc(C(=O)N[C@@H](CCC(=O)O)C(=O)O)cc1 [Methotrexate] | 232 | 168 | 138 | –
CN(C)c1ccc2nc3ccc(=[N+](C)C)cc-3sc2c1 [Methylene blue] | 5.4 | 6 | 17.8 | –

SMILES | EC50 asexual blood stage growth ([1]; serum: 0.5% AlbuMAX) [nM] | EC50 asexual blood stage growth [1, 6] [nM] | EC50 asexual blood stage growth [2] [nM] | other results
CC(=O)N[C@@H](C(=O)O)C(C)(C)S [N-acetyl-D-penicillamine] | 7560 | > 10000 | > 10000 | –
CC(C)(C)NCc1cc(Nc2ccnc3cc(Cl)ccc23)c2c(c1O)CCCC2 [Naphthoquine] | 23.2 | 68.3 | 8.7 | –
CONC(=N)c1ccc(-c2ccc(-c3ccc(C(=N)NOC)cc3)o2)cc1 [Pafuramidine] | > 10000 | > 10000 | > 10000 | –
N=C(N)c1ccc(OCCCCCOc2ccc(C(=N)N)cc2)cc1 [Pentamidine] | 212 | 389 | 139 | –
CN(C)Cc1ccccc1CNc1ccnc2cc(Cl)ccc12 [Phenylequine] | 36.6 | 40.7 | 7.4 | –
Clc1ccc2c(N3CCN(CCCN4CCN(c5ccnc6cc(Cl)ccc56)CC4)CC3)ccnc2c1 [Piperaquine] | 68.2 | 35.3 | 299 | –
COc1cc(NC(C)CCCN)c2ncccc2c1 (stereo unspecified) [Primaquine] | 3100 | 9000 | 5750 | –
CC(C)N=C(N)N=C(N)Nc1ccc(Cl)cc1 [Proguanil] | > 10000 | > 10000 | 2740 | –
CCc1nc(N)nc(N)c1-c1ccc(Cl)cc1 [Pyrimethamine] | 21.8 | 7.2 | 36.6 | –
C=CC1CN2CCC1CC2C(O)c1ccnc2ccc(OC)cc12 (stereo unspecified) [Quinidine] | 30.8 | 18.5 | 73.9 | –
C=C[C@H]1C[N@@]2CC[C@H]1C[C@H]2[C@H](O)c1ccnc2ccc(OC)cc12 [Quinine] | 127 | 174 | 184 | –
Cc1cc2nc3c(=O)[nH]c(=O)nc-3n(CC(O)C(O)C(O)CO)c2cc1C (stereo unspecified) [Riboflavin] | > 10000 | > 10000 | > 10000 | –
CCN(CC)CCCCCCNc1cc(OC)cc2c(C)ccnc12 [Sitamaquine] | 773 | 1050 | 730 | –
Nc1ccc(S(=O)(=O)Nc2ncccn2)cc1 [Sulfadiazine] | > 10000 | 8320 | > 10000 | –
COc1cc(C)c2c(Oc3cccc(C(F)(F)F)c3)c(OC)cc(NC(C)CCCN)c2n1 (stereo unspecified) [Tafenoquine] | 5290 | > 10000 | 5940 | –
COc1cc(Cc2cnc(N)nc2N)cc(OC)c1OC [Trimethoprim] | 794 | 496 | 5280 | –
